Laboratory results reported in US10251891B2, “Aprepitant oral liquid formulations” (InnoPharma, Inc., priority 2014, dated 2019).

Assay: Solubility of aprepitant in water
Format: physicochemical
Source text: Moreover, it should be recognized that the particle size of the active pharmaceutical ingredient may have important effects on the bioavailability of a formulation. Smaller particle sizes often have increased surface area and will thus dissolve faster than larger particles. However, decreasing the particle size will often increase agglomeration of the particles, and an increased surface area of smaller particles can result in faster degradation of the compound, e.g., due to oxidation and/or hydrolysis. The inventors have now found out that a fine particle size, and especially an average particle size between 0.250 and 0.400 micron, could achieve a desirable bioavailability (typically identical to that of commercially available solid oral aprepitant, EMEND). Such particle size may preferably be achieved using air-jet milling, ball milling, or mortar milling.

**Q.** Which solubility in water does the source give for `C[C@@H](O[C@H]1OCCN(Cc2n[nH]c(=O)[nH]2)[C@H]1c1ccc(F)cc1)c1cc(C(F)(F)F)cc(C(F)(F)F)c1` [Aprepitant, 5-([(2R,3S)-2-((R)-1-[3,5-bis(trifluoromethyl)phenyl]ethoxy)-3-(4-fluoro-phenyl)morpholino]methyl)-1H-1,2,4-triazol-3(2H)-one] here?
**A.** practically insoluble in water
